Inhibition and IC50 data for twelve compounds are collected here from US20240131168A1, “NAPHTHALENE RING-CONTAINING COMPOUND, PHARMACEUTICAL COMPOSITION CONTAINING SAME, AND USE THEREOF” (JIANGSU YAHONG MEDITECH CO., LTD., priority 2021, published 2024).

The test system of this assay is MCF-7 ER^D538G. As to the kind of experiment: CellTiter-Glo cell proliferation inhibition, MCF-7 ER^D538G. The assay is classed as cell-based. The settings on record: Homo sapiens, MCF7, 144 h, MCF-7 ER^D538G (CTG), 6 days, starting concentration 10 μM; for inhibition at up to 10 µM: read-out: IH % max (maximum inhibition percentage). The procedure, abridged:
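MCF-7, TamR-MCF-7, and CRISPR-edited MCF-7 ER D538G or Y537S cells were seeded at 1,000 or 2,000 cells/well in EMEM and cultured 24 h. They were then exposed to a 4-fold, 10-point series (top 10 µM before addition to wells) for 6 days or 72 h at 37 °C. CellTiter-Glo luminescence gave IC50 and maximum % inhibition.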
(In general: ATP-based viability assays read luminescence as a measure of living cells.)

In general, inhibition refers to the relative decrease from the control value, in per cent. One may read the IC50 as the concentration that gives 50% inhibition.

Turning to `C[C@@H]1CN(CCOCC(=O)N2CCN(c3ccc4c(c3)C(=O)N(C3CCC(=O)NC3=O)C4=O)CC2)[C@@H](C)CN1CCOc1ccc(Oc2c(-c3ccc(S(C)(=O)=O)cc3)ccc3cc(O)ccc23)cc1` (stereo partly drawn) [Compound D15, 2-(2,6-dioxopiperidin-3-yl)-5-(4-(2-(2-((2S,5R)-4-(2-(4-((6-hydroxy-2-(4-(methylsulfonyl)phenyl)naphthalen-1-yl)oxy)phenoxy)ethyl)-2,5-dimethylpiperazin-1-yl)ethoxy)acetyl)piperazin-1-yl)isoindoline-1,3-dione], the inhibition at up to 10 µM was 48%. In the case of `CS(=O)(=O)c1ccc(-c2ccc3cc(O)ccc3c2Oc2ccc(OCCOCCOCCOCCOc3ccc4c(c3)C(=O)N(C3CCC(=O)NC3=O)C4)cc2)cc1` (stereo not shown) [Compound D35, 3-(6-(2-(2-(2-(2-(4-((6-hydroxy-2-(4-(methylsulfonyl)phenyl)naphthalen-1-yl)oxy)phenoxy)ethoxy)ethoxy)ethoxy)ethoxy)-1-oxoisoindolin-2-yl)piperidine-2,6-dione], the inhibition at up to 10 µM amounted to 39%. In the case of `CS(=O)(=O)c1ccc(-c2ccc3cc(O)ccc3c2Oc2ccc(OCCOCCOCCOCCN3CCN(c4ccc5c(c4)C(=O)N(C4CCC(=O)NC4=O)C5=O)CC3)cc2)cc1` (stereo not shown) [Compound D19], the inhibition at up to 10 µM came to 73%. As for `C[C@@H]1CN(CCOc2ccc(Oc3c(-c4ccc(S(C)(=O)=O)cc4)ccc4cc(O)ccc34)cc2)[C@@H](C)CN1CCOCC(=O)N1CCN(c2ccc3c(c2)CN(C2CCC(=O)NC2=O)C3=O)CC1` (stereo partly drawn) [Compound D9, 3-(5-(4-(2-(2-((2R,5S)-4-(2-(4-((6-hydroxy-2-(4-(methylsulfonyl)phenyl)naphthalen-1-yl)oxy)phenoxy)ethyl)-2,5-dimethylpiperazin-1-yl)ethoxy)acetyl)piperazin-1-yl)-1-oxoisoindolin-2-yl)piperidine-2,6-dione], the 50% inhibitory concentration (IC50) came out at 960 nM and the inhibition at up to 10 µM came to 65%.

As to `CCN(CCOCCOCCN1CCN(c2ccc3c(c2)C(=O)N(C2CCC(=O)NC2=O)C3=O)CC1)CCOc1ccc(Oc2c(-c3ccc(S(C)(=O)=O)cc3)ccc3cc(O)ccc23)cc1` (stereo not shown) [Compound D28, 2-(2,6-dioxopiperidin-3-yl)-5-(4-(2-(2-(2-(ethyl(2-(4-((6-hydroxy-2-(4-(methylsulfonyl)phenyl)naphthalen-1-yl)oxy)phenoxy)ethyl)amino)ethoxy)ethoxy)ethyl)piperazin-1-yl)isoindoline-1,3-dione], half-maximal inhibition (IC50) required 568 nM and the inhibition at up to 10 µM worked out at 81%. Consider `CS(=O)(=O)c1ccc(-c2ccc3cc(O)ccc3c2Oc2ccc(OCCOCCOCCOCCN3CCN(c4ccc5c(c4)C(=O)N(C4CCC(=O)NC4=O)C5)CC3)cc2)cc1` (stereo not shown) [Compound D21], for which the inhibition at up to 10 µM turned out to be 55%.

With `CCN(CCCCCN(C)CC(=O)N1CCN(c2ccc3c(c2)C(=O)N(C2CCC(=O)NC2=O)C3=O)CC1)CCOc1ccc(Oc2c(-c3ccc(S(C)(=O)=O)cc3)ccc3cc(O)ccc23)cc1` (stereo not shown) [Compound D31, 2-(2,6-dioxopiperidin-3-yl)-5-(4-(N-(5-(ethyl(2-(4-((6-hydroxy-2-(4-(methylsulfonyl))phenyl)naphthalen-1-yl)oxy)phenoxy)ethyl)aminopentyl)-N-methylglycyl)piperazin-1-yl)isoindoline-1,3-dione], the inhibition at up to 10 µM was 90%. With `CS(=O)(=O)c1ccc(-c2ccc3cc(O)ccc3c2Oc2ccc(N3CCN(CCCCCOCC(=O)N4CCN(c5ccc6c(c5)CN(C5CCC(=O)NC5=O)C6=O)CC4)CC3)cc2)cc1` (stereo not shown) [Compound D11, 3-(5-(4-(2-((5-(4-(4-((6-hydroxy-2-(4-(methylsulfonyl)phenyl)naphthalen-1-yl)oxy)phenyl)piperazin-1-yl)pentyl)oxy)acetyl)piperazin-1-yl)-1-oxoisoindolin-2-yl)piperidine-2,6-dione], the IC50 came out at 788 nM and the inhibition at up to 10 µM is 54%.

Consider `CCN(CCOc1ccc(Oc2c(-c3ccc(S(C)(=O)=O)cc3)ccc3cc(O)ccc23)cc1)CC(=O)N1CCN(c2ccc3c(c2)C(=O)N(C2CCC(=O)NC2=O)C3=O)CC1` (stereo not shown) [Compound D8, 2-(2,6-dioxopiperidin-3-yl)-5-(4-(N-ethyl-N-(2-(4-((6-hydroxy-2-(4-(methylsulfonyl)phenyl)naphthalen-1-yl)oxy)phenoxy)ethyl)glycyl)piperazin-1-yl)isoindoline-1,3-dione], for which the inhibition at up to 10 µM amounted to 44%. Still for that read-out and setting: for `CS(=O)(=O)c1ccc(-c2ccc3cc(O)ccc3c2Oc2ccc(OCCOCCOCCN3CCN(c4ccc5c(c4)C(=O)N(C4CCC(=O)NC4=O)C5)CC3)cc2)cc1` (stereo not shown) [Compound D22, 3-(6-(4-(2-(2-(2-(4-((6-hydroxy-2-(4-(methylsulfonyl)phenyl)naphthalen-1-yl)oxy)phenoxy)ethoxy)ethoxy)ethyl)piperazin-1-yl)-1-oxoisoindolin-2-yl)piperidine-2,6-dione] the value was 61%; for `CS(=O)(=O)c1ccc(-c2ccc3cc(O)ccc3c2Oc2ccc(OCCOCCOCCN3CCN(c4ccc5c(c4)CN(C4CCC(=O)NC4=O)C5=O)CC3)cc2)cc1` (stereo not shown) [Compound D30], 65%. For the compound `CCN(CCOc1ccc(Oc2c(-c3ccc(S(C)(=O)=O)cc3)ccc3cc(O)ccc23)cc1)C(=O)c1ccc(CCC2CCN(C3CCN(c4ccc5c(c4)C(=O)N(C4CCC(=O)NC4=O)C5=O)CC3)CC2)cc1` (stereo not shown) [Compound D34, 4-(2-(1′-(2-(2,6-dioxopiperidin-3-yl)-1,3-dioxoisoindolin-5-yl)-[1,4′-bipiperidin]-4-yl)ethyl)-N-ethyl-N-(2-(4-((6-hydroxy-2-(4-(methylsulfonyl)phenyl)naphthalen-1-yl)oxy)phenoxy)ethyl)benzamide], half-maximal inhibition (IC50) required 182 nM and the inhibition at up to 10 µM is 82%.
